Measured values: ChEMBL document CHEMBL5291721, “A preclinical secondary pharmacology resource illuminates target-adverse drug reaction associations of marketed drugs” (Nat Commun, 2023)

Experiments:
Histamine H1 receptor [1] = molecular target: T1, Histamine H1 receptor (Homo sapiens, UniProt P35367); format: functional, cell-based
[2] = molecular target: T2, Peroxisome proliferator-activated receptor gamma (Homo sapiens, UniProt P37231); format: functional
T2 sequence (P37231 whole entry): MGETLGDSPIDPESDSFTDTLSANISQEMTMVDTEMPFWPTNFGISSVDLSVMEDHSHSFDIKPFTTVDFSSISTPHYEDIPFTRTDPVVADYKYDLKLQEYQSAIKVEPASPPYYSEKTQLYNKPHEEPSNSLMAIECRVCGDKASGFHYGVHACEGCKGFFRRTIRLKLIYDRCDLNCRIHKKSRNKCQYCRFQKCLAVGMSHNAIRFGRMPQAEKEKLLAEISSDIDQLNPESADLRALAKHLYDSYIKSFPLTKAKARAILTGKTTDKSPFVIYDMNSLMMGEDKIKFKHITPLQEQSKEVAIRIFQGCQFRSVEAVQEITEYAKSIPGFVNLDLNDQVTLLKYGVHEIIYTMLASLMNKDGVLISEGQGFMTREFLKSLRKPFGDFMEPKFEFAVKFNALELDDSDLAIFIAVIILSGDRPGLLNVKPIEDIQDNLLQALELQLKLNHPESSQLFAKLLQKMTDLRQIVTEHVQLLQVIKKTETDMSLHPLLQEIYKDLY

Histamine H1 receptor [3] = molecular target: T1, Histamine H1 receptor; format: functional, cell-based; remark: listed apart in the source
[4] = molecular target: T2, Peroxisome proliferator-activated receptor gamma; format: functional; remark: listed apart in the source
[5] = molecular target: Gamma-aminobutyric acid receptor subunit alpha-1/alpha-2/beta-2/gamma-2 (Homo sapiens, UniProt P14867+P18507+P47869+P47870); format: functional, cell-based
D(1A) dopamine receptor = D(1A) dopamine receptor (Homo sapiens, UniProt P21728)
D(4) dopamine receptor = molecular target: T3, D(4) dopamine receptor (Homo sapiens, UniProt P21917)
T3 sequence (P21917 whole entry): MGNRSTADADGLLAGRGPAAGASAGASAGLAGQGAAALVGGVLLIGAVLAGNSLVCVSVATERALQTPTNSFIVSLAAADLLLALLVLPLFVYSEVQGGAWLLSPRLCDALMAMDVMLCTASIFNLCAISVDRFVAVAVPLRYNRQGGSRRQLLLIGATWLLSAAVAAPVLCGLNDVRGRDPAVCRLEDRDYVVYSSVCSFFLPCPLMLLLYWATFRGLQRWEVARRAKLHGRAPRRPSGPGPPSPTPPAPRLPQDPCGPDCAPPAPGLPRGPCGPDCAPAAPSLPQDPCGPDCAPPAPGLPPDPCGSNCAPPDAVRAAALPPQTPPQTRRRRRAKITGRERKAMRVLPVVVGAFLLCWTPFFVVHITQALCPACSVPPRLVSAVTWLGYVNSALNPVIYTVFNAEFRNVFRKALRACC

Estrogen receptor beta = Estrogen receptor beta (Homo sapiens, UniProt Q92731)
[6] = molecular target: Beta-1 adrenergic receptor (Homo sapiens, UniProt P08588); format: functional, cell-based
[7] = molecular target: 5-hydroxytryptamine receptor 6 (Homo sapiens, UniProt P50406)
[8] = molecular target: T4, Muscarinic acetylcholine receptor M4 (Homo sapiens, UniProt P08173)
T4 sequence (P08173 whole entry): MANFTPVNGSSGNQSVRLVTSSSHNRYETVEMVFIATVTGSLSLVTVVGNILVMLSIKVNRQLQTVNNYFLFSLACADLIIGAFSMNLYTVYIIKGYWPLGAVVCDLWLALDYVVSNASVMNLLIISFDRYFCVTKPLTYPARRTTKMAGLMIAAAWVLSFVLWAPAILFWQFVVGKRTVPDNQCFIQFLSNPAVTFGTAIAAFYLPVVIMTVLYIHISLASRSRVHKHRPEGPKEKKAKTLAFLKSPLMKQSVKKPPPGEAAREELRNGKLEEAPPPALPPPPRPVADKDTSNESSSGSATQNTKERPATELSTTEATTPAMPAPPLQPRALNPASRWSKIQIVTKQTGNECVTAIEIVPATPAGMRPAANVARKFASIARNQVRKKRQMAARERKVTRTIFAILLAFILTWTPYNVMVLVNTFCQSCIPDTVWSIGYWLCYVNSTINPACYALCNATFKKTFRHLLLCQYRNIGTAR

[9] = molecular target: T5, Muscarinic acetylcholine receptor M5 (Homo sapiens, UniProt P08912)
T5 sequence (P08912 whole entry): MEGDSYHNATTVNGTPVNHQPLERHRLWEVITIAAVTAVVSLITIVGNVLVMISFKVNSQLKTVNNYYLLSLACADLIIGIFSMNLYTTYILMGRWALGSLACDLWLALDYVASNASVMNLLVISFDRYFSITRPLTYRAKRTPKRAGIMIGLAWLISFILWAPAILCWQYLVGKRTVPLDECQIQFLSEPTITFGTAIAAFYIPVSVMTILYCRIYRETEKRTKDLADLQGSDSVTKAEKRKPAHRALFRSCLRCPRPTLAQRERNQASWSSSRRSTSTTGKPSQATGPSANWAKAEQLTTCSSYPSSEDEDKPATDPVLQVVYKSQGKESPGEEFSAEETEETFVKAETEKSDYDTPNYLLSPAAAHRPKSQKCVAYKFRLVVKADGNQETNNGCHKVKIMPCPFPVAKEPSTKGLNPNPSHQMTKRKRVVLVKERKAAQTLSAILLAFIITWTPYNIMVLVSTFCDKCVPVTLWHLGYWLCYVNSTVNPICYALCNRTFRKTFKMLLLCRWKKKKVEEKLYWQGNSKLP

D(1B) dopamine receptor = D(1B) dopamine receptor (Homo sapiens, UniProt P21918)
[10] = molecular target: Sodium channel protein type 5 subunit alpha (Homo sapiens, UniProt Q14524); format: functional, cell-based
[11] = molecular target: Voltage-dependent L-type calcium channel subunit alpha-1C (Homo sapiens, UniProt Q13936); format: functional, cell-based
Also: assay procedure not described here.

Sequence of Estrogen receptor beta (Q92731 whole entry): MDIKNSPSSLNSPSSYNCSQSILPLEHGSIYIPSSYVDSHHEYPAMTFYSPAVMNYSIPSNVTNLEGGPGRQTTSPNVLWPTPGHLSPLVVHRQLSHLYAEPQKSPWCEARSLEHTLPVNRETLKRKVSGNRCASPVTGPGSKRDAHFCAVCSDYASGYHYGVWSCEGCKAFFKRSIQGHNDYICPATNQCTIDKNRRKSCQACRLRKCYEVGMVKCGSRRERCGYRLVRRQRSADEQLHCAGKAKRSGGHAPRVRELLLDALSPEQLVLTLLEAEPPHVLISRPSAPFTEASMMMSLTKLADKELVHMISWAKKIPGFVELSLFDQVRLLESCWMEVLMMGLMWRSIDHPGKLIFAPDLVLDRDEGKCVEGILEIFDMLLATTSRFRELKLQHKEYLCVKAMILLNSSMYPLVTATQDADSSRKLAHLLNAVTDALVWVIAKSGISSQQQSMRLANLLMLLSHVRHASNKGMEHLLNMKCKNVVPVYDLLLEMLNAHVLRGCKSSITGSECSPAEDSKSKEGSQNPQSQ
T1 sequence (P35367 whole entry): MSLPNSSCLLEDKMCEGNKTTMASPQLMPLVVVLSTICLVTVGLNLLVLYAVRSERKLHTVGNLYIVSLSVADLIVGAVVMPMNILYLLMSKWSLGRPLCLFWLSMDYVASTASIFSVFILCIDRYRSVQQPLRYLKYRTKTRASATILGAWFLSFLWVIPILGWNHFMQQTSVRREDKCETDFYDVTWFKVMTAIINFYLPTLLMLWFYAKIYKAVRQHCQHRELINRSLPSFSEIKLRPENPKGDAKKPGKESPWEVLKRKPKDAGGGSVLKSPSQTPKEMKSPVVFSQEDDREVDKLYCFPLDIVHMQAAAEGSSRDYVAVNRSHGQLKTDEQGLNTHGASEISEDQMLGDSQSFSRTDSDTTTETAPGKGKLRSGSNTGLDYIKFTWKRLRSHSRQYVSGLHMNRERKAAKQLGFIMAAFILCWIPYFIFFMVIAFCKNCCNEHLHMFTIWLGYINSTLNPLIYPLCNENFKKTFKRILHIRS
Sequence of D(1A) dopamine receptor (P21728 whole entry): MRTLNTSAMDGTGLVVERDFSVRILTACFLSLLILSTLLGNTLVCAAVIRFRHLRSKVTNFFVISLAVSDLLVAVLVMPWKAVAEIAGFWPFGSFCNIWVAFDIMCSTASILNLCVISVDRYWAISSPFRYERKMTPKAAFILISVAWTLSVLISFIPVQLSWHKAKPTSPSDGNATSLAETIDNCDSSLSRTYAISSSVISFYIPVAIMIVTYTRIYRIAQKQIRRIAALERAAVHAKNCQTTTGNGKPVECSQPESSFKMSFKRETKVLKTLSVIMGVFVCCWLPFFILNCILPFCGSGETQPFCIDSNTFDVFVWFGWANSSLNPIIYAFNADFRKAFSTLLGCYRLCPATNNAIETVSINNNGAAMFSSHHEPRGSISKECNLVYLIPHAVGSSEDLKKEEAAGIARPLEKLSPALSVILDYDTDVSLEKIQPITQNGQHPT
Sequence of 5-hydroxytryptamine receptor 6 (P50406 whole entry): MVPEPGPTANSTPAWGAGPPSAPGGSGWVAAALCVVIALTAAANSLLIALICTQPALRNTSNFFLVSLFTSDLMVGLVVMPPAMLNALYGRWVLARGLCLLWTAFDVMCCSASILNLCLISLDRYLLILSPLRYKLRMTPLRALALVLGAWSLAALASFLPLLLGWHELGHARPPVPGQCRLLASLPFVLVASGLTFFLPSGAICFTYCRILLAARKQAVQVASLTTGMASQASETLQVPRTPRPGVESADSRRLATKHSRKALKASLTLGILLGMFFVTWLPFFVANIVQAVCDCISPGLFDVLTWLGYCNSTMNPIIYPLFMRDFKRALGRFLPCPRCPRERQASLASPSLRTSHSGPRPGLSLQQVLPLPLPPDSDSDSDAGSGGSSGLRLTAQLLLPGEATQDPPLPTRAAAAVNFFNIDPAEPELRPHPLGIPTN
Sequence of Gamma-aminobutyric acid receptor subunit alpha-1/alpha-2/beta-2/gamma-2 (P14867 whole entry): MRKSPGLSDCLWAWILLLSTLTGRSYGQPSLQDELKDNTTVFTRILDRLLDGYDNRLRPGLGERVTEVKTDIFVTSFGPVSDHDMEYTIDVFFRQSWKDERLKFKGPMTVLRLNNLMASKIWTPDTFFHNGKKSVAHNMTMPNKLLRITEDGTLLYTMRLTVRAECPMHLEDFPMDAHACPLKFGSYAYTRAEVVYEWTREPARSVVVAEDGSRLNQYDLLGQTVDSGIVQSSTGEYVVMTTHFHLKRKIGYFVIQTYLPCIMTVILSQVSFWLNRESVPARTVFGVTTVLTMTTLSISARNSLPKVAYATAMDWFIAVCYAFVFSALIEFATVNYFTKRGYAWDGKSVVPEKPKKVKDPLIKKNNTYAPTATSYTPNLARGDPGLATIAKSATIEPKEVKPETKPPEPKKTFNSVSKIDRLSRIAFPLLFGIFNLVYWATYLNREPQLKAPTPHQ
Sequence of Gamma-aminobutyric acid receptor subunit alpha-1/alpha-2/beta-2/gamma-2 (P47870 whole entry): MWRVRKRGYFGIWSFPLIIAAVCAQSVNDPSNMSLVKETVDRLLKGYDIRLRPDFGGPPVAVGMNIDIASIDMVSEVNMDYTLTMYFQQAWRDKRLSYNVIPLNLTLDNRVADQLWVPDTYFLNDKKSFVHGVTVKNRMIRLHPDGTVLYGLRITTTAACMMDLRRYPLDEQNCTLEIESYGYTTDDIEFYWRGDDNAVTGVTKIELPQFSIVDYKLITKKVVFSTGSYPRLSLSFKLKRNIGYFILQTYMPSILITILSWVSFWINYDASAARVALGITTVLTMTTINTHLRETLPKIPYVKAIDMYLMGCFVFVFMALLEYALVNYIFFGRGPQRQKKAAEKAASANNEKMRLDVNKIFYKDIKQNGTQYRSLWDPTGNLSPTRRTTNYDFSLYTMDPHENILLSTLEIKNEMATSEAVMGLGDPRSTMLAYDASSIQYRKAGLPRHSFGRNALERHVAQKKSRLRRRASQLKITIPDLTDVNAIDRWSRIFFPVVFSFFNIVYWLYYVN
Sequence of Gamma-aminobutyric acid receptor subunit alpha-1/alpha-2/beta-2/gamma-2 (P18507 whole entry): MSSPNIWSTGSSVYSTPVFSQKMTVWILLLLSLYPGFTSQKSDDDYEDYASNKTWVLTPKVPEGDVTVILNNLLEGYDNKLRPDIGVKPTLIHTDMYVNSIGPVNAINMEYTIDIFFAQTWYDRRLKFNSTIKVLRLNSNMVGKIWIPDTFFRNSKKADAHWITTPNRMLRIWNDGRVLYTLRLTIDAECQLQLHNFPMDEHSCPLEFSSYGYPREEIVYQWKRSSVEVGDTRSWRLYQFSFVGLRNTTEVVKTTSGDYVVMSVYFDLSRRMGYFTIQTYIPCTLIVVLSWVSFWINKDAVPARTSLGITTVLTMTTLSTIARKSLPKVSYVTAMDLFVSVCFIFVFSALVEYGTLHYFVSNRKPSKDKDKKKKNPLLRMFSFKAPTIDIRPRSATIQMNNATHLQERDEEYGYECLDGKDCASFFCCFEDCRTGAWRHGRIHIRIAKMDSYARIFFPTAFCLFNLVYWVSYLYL
Sequence of Gamma-aminobutyric acid receptor subunit alpha-1/alpha-2/beta-2/gamma-2 (P47869 whole entry): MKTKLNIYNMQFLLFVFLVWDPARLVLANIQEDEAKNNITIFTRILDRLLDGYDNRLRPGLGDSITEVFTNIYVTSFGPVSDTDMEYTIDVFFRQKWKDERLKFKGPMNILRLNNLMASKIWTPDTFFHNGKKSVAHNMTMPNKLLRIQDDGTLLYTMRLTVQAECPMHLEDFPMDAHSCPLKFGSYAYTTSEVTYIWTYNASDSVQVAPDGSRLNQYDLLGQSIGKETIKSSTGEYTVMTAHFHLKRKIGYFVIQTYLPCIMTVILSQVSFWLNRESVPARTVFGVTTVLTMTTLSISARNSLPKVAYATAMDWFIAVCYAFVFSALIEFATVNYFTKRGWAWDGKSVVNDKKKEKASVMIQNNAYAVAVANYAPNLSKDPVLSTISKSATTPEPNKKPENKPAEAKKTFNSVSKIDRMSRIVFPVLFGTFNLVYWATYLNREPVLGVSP
Sequence of Beta-1 adrenergic receptor (P08588 whole entry): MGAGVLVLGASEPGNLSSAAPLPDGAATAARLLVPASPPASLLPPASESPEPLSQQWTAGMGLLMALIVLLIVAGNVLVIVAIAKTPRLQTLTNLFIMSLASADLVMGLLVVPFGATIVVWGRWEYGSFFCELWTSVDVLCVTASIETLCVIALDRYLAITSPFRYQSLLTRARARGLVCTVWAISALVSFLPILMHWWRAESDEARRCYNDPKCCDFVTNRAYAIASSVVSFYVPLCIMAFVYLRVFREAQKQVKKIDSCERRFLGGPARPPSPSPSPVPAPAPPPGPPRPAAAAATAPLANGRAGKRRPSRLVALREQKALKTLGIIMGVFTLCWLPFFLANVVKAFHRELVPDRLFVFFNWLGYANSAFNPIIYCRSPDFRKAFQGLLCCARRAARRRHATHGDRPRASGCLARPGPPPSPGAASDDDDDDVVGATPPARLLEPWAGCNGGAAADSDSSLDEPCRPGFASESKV
Sequence of D(1B) dopamine receptor (P21918 whole entry): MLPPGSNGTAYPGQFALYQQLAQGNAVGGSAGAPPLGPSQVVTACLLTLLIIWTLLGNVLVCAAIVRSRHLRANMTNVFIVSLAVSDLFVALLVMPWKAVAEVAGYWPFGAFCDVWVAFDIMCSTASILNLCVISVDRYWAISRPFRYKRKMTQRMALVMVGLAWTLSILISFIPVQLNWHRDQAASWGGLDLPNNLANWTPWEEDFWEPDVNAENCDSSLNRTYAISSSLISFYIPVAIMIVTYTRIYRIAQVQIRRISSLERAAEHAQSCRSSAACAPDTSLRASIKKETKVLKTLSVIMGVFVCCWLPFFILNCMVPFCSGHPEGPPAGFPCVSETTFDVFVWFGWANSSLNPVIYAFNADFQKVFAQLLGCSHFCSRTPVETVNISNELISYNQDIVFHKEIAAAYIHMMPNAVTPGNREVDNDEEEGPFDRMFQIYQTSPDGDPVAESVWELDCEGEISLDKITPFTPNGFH

C[C@H]1C[C@@H]2[C@H]([C@@H](O)C[C@@]3(C)[C@H]2CC[C@]3(O)C(=O)COC(=O)CCC(=O)O)[C@@]2(C)C=CC(=O)C=C12 [METHYLPREDNISOLONE HEMISUCCINATE]
AC50 (Histamine H1 receptor [1]): > 30 µM
AC50 [2]: > 30 µM
AC50 (Histamine H1 receptor [3]): > 30 µM
AC50 [4]: > 30 µM
AC50 [5]: > 30 µM

Cc1cc(-c2ccccc2)nnc1NCCN1CCOCC1 [MINAPRINE]
AC50 (D(1A) dopamine receptor): > 10 µM
AC50 (D(4) dopamine receptor): > 10 µM
AC50 (Estrogen receptor beta): > 30 µM

Cc1c(Cl)cccc1Nc1ccccc1C(=O)O [TOLFENAMIC ACID]
AC50 [6]: > 30 µM

CN(C)C(=O)OC1N=C(c2ccccc2)c2cc(Cl)ccc2N(C)C1=O (configuration not stated) [CAMAZEPAM]
AC50 [7]: > 10 µM
AC50 (D(1A) dopamine receptor): > 10 µM
AC50 [8]: > 10 µM
AC50 (D(4) dopamine receptor): > 10 µM
AC50 [9]: > 10 µM
AC50 (Estrogen receptor beta): > 30 µM
AC50 (D(1B) dopamine receptor): > 10 µM

O=C1NCCN1CCN1CCC(c2cn(-c3ccc(F)cc3)c3ccc(Cl)cc23)CC1 [SERTINDOLE]
AC50 [10]: 21 µM
AC50 [11]: > 50 µM

Cc1ccc(-c2nc3ccc(C)cn3c2CC(=O)N(C)C)cc1 [ZOLPIDEM]
AC50 [7]: > 10 µM
AC50 (D(1A) dopamine receptor): > 10 µM
AC50 [8]: > 10 µM
AC50 (D(4) dopamine receptor): > 10 µM
AC50 [9]: > 10 µM
AC50 (D(1B) dopamine receptor): > 10 µM

C[C@]12CCC(=O)C=C1CC[C@@H]1[C@@H]2CC[C@@]2(C)[C@H]1CC[C@]2(C)O [METHYLTESTOSTERONE]
AC50 [6]: > 30 µM

Nc1ncnc2c1ncn2[C@@H]1O[C@H](COP(=O)(O)O)[C@@H](O)[C@H]1O [ADENOSINE PHOSPHATE]
AC50 (Histamine H1 receptor [1]): > 30 µM
AC50 (Histamine H1 receptor [3]): > 30 µM
AC50 [5]: > 30 µM

COC(=O)C1=C(C)NC(C)=C(C(=O)OC(C)C)C1c1cccc2nonc12 (configuration not stated) [ISRADIPINE]
AC50 [10]: 2.98 µM

NC(=O)C[S+]([O-])C(c1ccccc1)c1ccccc1 (configuration not stated) [MODAFINIL]
AC50 [7]: > 10 µM
AC50 (D(1A) dopamine receptor): > 10 µM
AC50 [8]: > 10 µM
AC50 (D(4) dopamine receptor): > 10 µM
AC50 [9]: > 10 µM
AC50 (Estrogen receptor beta): > 30 µM
AC50 (D(1B) dopamine receptor): > 10 µM

CCCCC(C)(O)C/C=C/[C@H]1[C@H](O)CC(=O)[C@@H]1CCCCCCC(=O)OC (some centres not stated) [MISOPROSTOL]
AC50 (Histamine H1 receptor [1]): > 30 µM
AC50 (Histamine H1 receptor [3]): > 30 µM
AC50 [5]: > 30 µM

CCCCCOC(=O)Nc1nc(=O)n([C@@H]2O[C@H](C)[C@@H](O)[C@H]2O)cc1F [CAPECITABINE]
AC50 [2]: > 30 µM
AC50 [4]: > 30 µM
AC50 [5]: > 30 µM

C1=Cc2cccc(OCC3CNCCO3)c2C1 (configuration not stated) [INDELOXAZINE]
AC50 [6]: > 30 µM

O=C(O)CCCc1ccccc1 [PHENYLBUTANOIC ACID]
AC50 [7]: > 10 µM
AC50 [8]: > 10 µM
AC50 (D(4) dopamine receptor): > 10 µM
AC50 [9]: > 10 µM
AC50 (Estrogen receptor beta): > 30 µM

CCCCCN(C)CCC(O)(P(=O)(O)O)P(=O)(O)O [IBANDRONIC ACID]
AC50 [7]: > 10 µM
AC50 (D(1A) dopamine receptor): > 10 µM
AC50 (D(4) dopamine receptor): > 10 µM
AC50 (Estrogen receptor beta): > 30 µM

O=C(O)Cc1cn(-c2ccccc2)nc1-c1ccc(Cl)cc1 [LONAZOLAC]
AC50 [6]: > 30 µM

CCCCCCC(C)(C)c1cc(O)c2c(c1)OC(C)(C)C1CCC(=O)CC21 (configuration not stated) [NABILONE]
AC50 (Histamine H1 receptor [1]): > 30 µM
AC50 [2]: > 30 µM
AC50 (Histamine H1 receptor [3]): > 30 µM
AC50 [4]: > 30 µM
AC50 [5]: > 30 µM

C#C[C@]1(O)CC[C@H]2[C@@H]3CCC4=CCCC[C@@H]4[C@H]3CC[C@@]21C [LYNESTRENOL]
AC50 [6]: > 30 µM

NC(CO)C(=O)NNCc1ccc(O)c(O)c1O (configuration not stated) [BENSERAZIDE]
AC50 (Histamine H1 receptor [1]): > 30 µM
AC50 (D(1A) dopamine receptor): > 10 µM
AC50 (Histamine H1 receptor [3]): > 30 µM
